Molecules are shown by their SMILES.

The values below come from patent US9732067B2, “Compounds and methods for activating the apoptotic arm of the unfolded protein response” (University of Kansas, priority 2012, dated 2017).

The nature of data set [1]: Hepatic microsome stability, mouse. It is filed as in vitro ADME. An excerpt: (§1) The microsomal stability assay is commonly used to rank compounds according to their metabolic stability. This assay addresses the pharmacologic question of how long the parent compound will remain circulating in plasma within the body.
A short description of data set [2]: Stability in PBS at room temperature. It is filed as physicochemical. Particulars: 48 hours, 23° C. The method, then:
Stability was measured under two distinct conditions with ML291: at room temperature (23° C.) in PBS (no antioxidants or other protectants and DMSO concentration below 0.1%) and with 50% acetonitrile added to account for challenges with solubility of the compound in PBS alone. Stability was determined as the loss of compound with time over a 48 hour period with a minimum of 6 time points.

A short description of data set [3]: Hepatic microsome stability, human. It is filed as in vitro ADME.
Description: as §1

Data set [4] addresses T1, dopamine transporter (DAT) (Homo sapiens, UniProt Q01959).
T1 construct: Ricerca Biosciences LLC (Bothell, Wash.)
Kind of data set: Radio-ligand binding panel (Ricerca), 67 GPCRs, ion channels and transporters. The method, then: ML291 was submitted to Ricerca Biosciences LLC (Bothell, Wash.) to evaluate it in radio-ligand binding assays to determine activity against a panel of 67 GPCRs, ion channels and transporters at 10 μM.

Data set [5] can be described thus: Toxicity towards Fa2N-4 immortalized human hepatocytes. It is filed as cell-based. Particulars: read-out: Toxicity Towards Fa2N-4 Immortalized Human Hepatocytes LC50.
The subject of another data set is SKOV3. Kind of data set: Proliferation, SKOV3. Conditions: Homo sapiens, SK-OV-3, 24 hours. It is filed as cell-based. On the procedure: To determine whether ML291 could reduce the proliferation of malignant cells, a panel of OSCC (UMSCC23, A253, HN6, HN12, HN30, H460/T800) and ovarian cancer (RMG-1, TOV112D, A2780 and SKOV3) cell lines, were treated with increasing doses (0.15-20 μM) of ML291 for 24 hours (FIGS. 3A and 3B).

T1 sequence (Q01959 whole entry, species assumed): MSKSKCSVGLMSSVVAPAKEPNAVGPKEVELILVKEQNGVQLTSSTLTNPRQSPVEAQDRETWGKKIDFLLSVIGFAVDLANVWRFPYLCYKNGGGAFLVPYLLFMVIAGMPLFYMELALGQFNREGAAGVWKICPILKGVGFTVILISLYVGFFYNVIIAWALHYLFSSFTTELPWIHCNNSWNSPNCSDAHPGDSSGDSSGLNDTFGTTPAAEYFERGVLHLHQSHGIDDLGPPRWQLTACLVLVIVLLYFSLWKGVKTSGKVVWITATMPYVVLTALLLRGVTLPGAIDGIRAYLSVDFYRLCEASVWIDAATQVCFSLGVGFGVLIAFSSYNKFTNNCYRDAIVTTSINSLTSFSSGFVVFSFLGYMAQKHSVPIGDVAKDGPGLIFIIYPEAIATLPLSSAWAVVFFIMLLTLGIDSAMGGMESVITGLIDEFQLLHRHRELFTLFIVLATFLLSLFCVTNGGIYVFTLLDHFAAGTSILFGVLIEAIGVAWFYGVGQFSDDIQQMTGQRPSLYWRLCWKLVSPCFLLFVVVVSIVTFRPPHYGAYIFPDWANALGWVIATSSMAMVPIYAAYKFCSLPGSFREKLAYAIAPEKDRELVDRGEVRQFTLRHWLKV

In the case of `O=C(Nc1ccc(S(=O)(=O)N2CCC(Cl)CC2)cc1)c1ccc([N+](=O)[O-])o1` [ML291, N-(4-((4-chloropiperidin-1-yl)sulfonyl)phenyl)-5-nitrofuran-2-carboxamide], the “Hepatic Microsome Stability (% Remaining after 1 hour @ 37° C.)” value came to 0.02% in data set [1] (Mouse) and 0.49% in data set [3] (Human). The “metabolism in mouse liver homogenates” value in data set [1] (within 1 hour) is listed as “almost completely metabolized”. The “percent remaining compound in PBS with 50% acetonitrile” value in data set [2] is recorded as 100%. In addition, the “percent remaining compound in PBS” value in data set [2] (no additives) came to 11.44%. Besides, the “metabolism in human liver homogenates” value in data set [3] (within 1 hour) is given as “almost completely metabolized”. The compound further came in with an inhibition at 10 µM in data set [4] of 68%. The CC50 in data set [5] amounted to 11.4 µM. The compound further registered an IC50 in the data set on SKOV3 of 1.59 µM.

For orientation: inhibition means the change of the read-out against control, counted positive when it falls. Low values mean little suppression, high ones strong suppression. A word on the IC50: it is the concentration at which inhibition is half-maximal. Low values mean inhibition by little substance, high ones a need for much substance.
